Laboratory results published in patent US12398118B2, “Rho-associated protein kinase inhibitor, pharmaceutical composition comprising same, and use thereof” (BEIJING TIDE PHARMACEUTICAL CO., LTD., priority 2018, dated 2025).

What was measured:
ROCK2 = ROCK2 (Homo sapiens, UniProt O75116); experiment: ROCK2 kinase IC50, HTRF KinEASE-STK S2 kit; type: biochemical; conditions: 2 hours at room temperature
Protocol: (§1) The kinase IC50 was determined by a commercialized CISBIO kinase detection kit, HTRF KinEASE-STK S2 kit (62ST2PEC). ROCK2 (01-119) employed in the reaction was purchased from Carna Biosciences.
(§2) Before the assay, the following working solutions as needed were formulated with corresponding reagents according to the instruction of the kinase detection kit: 1×kinase buffer, 5×STK-S2 substrate working solution (1.5 μM) and 5×ATP working solution (1.5 μM), 5×ROCK2 kinase working solution, 4×Streptavidin-XL665 working solution, and 4×STK-Ab-Cryptate 2 detection solution. Then the assay was performed according to the following procedure.
(§3) A solution of a compound at a concentration of 10000 nM was prepared with the 1×kinase buffer containing 2.5% DMSO. Gradient dilution of the solution of the compound was performed with the kinase buffer containing DMSO, so as to obtain solutions of a test compound at 9 different concentrations. In addition to wells of test compounds, a positive well (containing all the reagents except the compound) and a negative well (containing all the reagents except the test compound and kinase) were set. Except for the control wells (positive and negative wells), a solution of a test compound (4 μL) was added to each of the reaction wells, and a solution of 2.5% DMSO was added to the control wells. Then the substrate (2 μM, i.e., 2 μL 5×STK-S2 substrate working solution) was added to each of the reaction wells. The 5×ROCK2 kinase working solution (2 μL, containing 1.4 ng ROCK2 kinase) was added to each of the reaction wells except for the negative well, the volume of which was made up with the 1×kinase buffer (2 μL). The 5×ATP working solution (2 μL) was added to each of the reaction wells, and the mixtures were incubated at room temperature for 2 hours. After the kinase reaction was complete, the 4×Streptavidin-XL665 working solution was added to each of the reaction wells, the solutions were mixed, followed by immediate addition of the 4×STK-Ab-Cryptate 2 detection solution (5 μL), and the mixtures were incubated at room temperature for 1 hour. The fluorescence signal was read on ENVISION (Perkinelmer) (excitation wavelength: 320 inn, and emission wavelength: 665 nm and 615 nm). The inhibitory rate in each well was calculated based on the fluorescence intensity value: ER (Emission Ratio)_(fluorescence intensity at 665 nm/fluorescence intensity at 615 nm); inhibitory rate=(ERpositive−ERtest compound)/(ERpositive−ERnegative)*100%. Curves were plotted and fitted to obtain the median inhibitory concentration (IC50) of each teat compound with the PRISM 5.0 software. According to a biological test method similar to the above, the IC50 values of the compounds on ROCK1 were also tested.

ROCK1 = ROCK1 (Homo sapiens (Human), UniProt Q13464); experiment: ROCK1 kinase IC50, biological test method similar to ROCK2 assay; type: biochemical
Sequence of ROCK1 (Q13464 whole entry, species assumed): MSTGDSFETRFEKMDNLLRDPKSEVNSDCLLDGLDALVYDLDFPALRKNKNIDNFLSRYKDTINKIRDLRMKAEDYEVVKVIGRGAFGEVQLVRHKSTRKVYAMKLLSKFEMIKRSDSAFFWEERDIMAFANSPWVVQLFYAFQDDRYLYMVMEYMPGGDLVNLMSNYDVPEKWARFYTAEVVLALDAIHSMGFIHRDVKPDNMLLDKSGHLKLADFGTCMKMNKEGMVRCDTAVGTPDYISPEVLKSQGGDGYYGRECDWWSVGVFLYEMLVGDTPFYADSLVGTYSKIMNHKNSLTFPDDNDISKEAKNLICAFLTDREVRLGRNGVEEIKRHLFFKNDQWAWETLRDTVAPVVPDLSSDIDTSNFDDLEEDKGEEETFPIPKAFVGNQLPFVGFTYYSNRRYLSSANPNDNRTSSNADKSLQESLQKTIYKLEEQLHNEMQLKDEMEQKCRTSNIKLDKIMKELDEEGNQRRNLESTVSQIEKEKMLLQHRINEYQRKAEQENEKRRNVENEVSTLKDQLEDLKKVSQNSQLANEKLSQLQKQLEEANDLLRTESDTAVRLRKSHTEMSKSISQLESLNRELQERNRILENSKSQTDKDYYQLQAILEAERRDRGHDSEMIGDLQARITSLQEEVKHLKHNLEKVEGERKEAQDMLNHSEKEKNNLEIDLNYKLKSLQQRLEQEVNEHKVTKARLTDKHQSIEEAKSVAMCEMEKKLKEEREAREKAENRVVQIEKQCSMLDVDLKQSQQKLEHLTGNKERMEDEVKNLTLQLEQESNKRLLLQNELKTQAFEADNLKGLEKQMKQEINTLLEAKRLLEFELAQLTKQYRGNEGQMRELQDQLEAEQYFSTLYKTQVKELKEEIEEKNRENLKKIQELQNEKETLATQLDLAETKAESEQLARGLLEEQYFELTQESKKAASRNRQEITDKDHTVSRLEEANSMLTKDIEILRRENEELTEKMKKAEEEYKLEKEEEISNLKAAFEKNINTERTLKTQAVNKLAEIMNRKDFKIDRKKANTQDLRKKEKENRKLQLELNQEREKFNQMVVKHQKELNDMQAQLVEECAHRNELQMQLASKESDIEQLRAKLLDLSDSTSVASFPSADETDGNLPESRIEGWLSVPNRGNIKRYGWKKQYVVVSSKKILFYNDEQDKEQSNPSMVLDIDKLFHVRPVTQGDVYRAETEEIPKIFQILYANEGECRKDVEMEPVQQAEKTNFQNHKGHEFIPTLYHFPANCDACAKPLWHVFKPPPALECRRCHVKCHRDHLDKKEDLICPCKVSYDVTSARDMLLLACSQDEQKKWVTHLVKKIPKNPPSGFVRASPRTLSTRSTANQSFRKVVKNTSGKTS
Protocol: as §1, §2, §3

Sequence of ROCK2 (O75116 whole entry, looked up): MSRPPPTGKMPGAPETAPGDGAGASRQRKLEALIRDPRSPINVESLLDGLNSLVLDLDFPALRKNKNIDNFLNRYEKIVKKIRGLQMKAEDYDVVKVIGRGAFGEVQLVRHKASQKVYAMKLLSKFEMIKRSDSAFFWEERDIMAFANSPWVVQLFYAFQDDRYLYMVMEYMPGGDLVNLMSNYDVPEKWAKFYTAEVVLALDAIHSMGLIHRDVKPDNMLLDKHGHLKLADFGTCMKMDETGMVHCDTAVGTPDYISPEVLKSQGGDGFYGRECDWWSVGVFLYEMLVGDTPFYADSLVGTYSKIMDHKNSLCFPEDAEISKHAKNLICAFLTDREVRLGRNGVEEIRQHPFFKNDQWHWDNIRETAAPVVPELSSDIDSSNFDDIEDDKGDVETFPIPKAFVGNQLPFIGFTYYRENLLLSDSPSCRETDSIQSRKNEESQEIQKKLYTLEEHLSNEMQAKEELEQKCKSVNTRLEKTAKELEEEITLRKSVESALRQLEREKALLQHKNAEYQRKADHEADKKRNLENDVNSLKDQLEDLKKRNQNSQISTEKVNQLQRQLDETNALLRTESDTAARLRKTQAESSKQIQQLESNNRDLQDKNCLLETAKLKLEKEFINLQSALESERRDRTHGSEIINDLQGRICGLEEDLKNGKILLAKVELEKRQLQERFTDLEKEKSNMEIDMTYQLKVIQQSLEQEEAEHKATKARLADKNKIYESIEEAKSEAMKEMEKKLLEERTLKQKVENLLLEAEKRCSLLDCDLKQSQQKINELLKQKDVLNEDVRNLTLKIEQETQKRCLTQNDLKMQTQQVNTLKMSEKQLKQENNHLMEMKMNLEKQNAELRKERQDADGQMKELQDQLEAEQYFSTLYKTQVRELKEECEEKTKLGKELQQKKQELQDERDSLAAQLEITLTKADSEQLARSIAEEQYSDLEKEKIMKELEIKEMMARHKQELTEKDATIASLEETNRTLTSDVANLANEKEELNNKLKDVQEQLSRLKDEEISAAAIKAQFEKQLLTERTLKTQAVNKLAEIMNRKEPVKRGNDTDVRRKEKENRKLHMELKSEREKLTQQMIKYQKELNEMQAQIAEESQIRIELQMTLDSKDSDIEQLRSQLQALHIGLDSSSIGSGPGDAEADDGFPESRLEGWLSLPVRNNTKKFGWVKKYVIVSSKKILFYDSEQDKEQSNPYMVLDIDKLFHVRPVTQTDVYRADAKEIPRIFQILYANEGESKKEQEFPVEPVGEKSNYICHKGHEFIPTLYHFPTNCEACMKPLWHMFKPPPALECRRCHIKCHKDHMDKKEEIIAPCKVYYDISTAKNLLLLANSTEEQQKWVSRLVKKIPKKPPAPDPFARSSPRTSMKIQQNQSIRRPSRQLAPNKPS

SMILES | IC50 (ROCK2) | IC50 (ROCK1)
O=C1NCCc2cc(Nc3nc(-c4ccc5c(c4)CN(C(=O)OC4CC(F)(F)C4)C5)ncc3F)ccc21 [C14, 3,3-difluoro-cyclobutyl 5-(5-fluoro-4-((1-oxo-1,2,3,4-tetrahydro-isoquinolin-6-yl)amino)pyrimidin-2-yl) isoindoline-2-carboxylate] | 0.028 µM | > 10 µM
CC(OC(=O)N1CCc2cc(-c3ncc(F)c(Nc4ccc5c(=O)[nH]ccc5c4)n3)ccc21)C(F)(F)F (stereo not shown) [C73, 1,1,1-trifluoro-propan-2-yl 5-(5-fluoro-4-((1-oxo-1,2-dihydro-isoquinolin-6-yl)amino)pyrimidin-2-yl) indoline-1-carboxylate] | 0.078 µM | > 10 µM
CC(C)(C)CC(=O)N1Cc2ccc(-c3nccc(Nc4ccc5c(=O)[nH]ccc5c4)n3)cc2C1 [C56, 6-((2-(2-(3,3-dimethyl-butanoyl)isoindolin-5-yl)pryimidin-4-yl)amino) isoquinolin-1(2H)-one] | 0.024 µM | > 10 µM
COCn1c(C(=O)N2CC(F)(F)C2)cc2ccc(-c3ncnc(Nc4ccc5c(=O)[nH]ccc5c4)n3)cc21 [C22, 6-((4(2-(3,3-difluoro-azetidine-1-carbonyl)-1-(methoxy-methyl)-1H-indol-6-yl)-1,3,5-triazin-2-yl)amino) isoquinolin-1(2H)-one] | 0.13 µM | > 10 µM
CC(C)(C)OC(=O)N1CCc2sc(-c3ncc(F)c(Nc4ccc5c(c4)CCNC5=O)n3)cc2C1 [C42, tert-butyl 2-(5-fluoro-4-((1-oxo-1,2,3,4-tetrahydroisoquinolin-6-yl)amino)pyrimidin-2-yl)-6,7-dihydrothieno[3,2-c]pyridine-5(4H)-carboxylate] | 0.031 µM | > 10 µM
CC(C)(C)OC(=O)N1CCc2cc(-c3ncc(F)c(Nc4ccc5c(=O)[nH]ccc5c4)n3)ccc21 [C17] | 0.421 µM | > 10 µM
O=C(OC1CC(F)(F)C1)N1Cc2ccc(-c3ncc(F)c(Nc4ccc5c(=O)[nH]ccc5c4)n3)cc2C1 [C10, 3,3-difluorocyclobutyl 5-(5-fluoro-4-((1-oxo-1,2-dihydroisoquinolin-6-yl)amino)pyrimidin-2-yl)isoindoline-2-carboxylate] | 0.011 µM | > 10 µM
CC(OC(=O)N1CCc2sc(-c3nccc(Nc4ccc5c(c4)CCNC5=O)n3)cc2C1)C(F)(F)F (stereo not shown) [C59, 1,1,1-trifluoropropan-2-yl 2-(4-((1-oxo-1,2,3,4-tetrahydroisoquinolin-6-yl)amino)pyrimidin-2-yl)-6,7-dihydrothieno[3,2-c]pyridine-5(4H)-carboxylate] | 0.033 µM | > 10 µM
O=C(c1cc2ccc(-c3ncc(F)c(Nc4ccc5c(=O)[nH]ccc5c4)n3)cc2[nH]1)N1CC(F)(F)C1 [C9, 6-((2-(2-(3,3-difluoroazetidine-1-carbonyl)-1H-indol-6-yl)-5-fluoropyrimidin-4-yl)amino)isoquinolin-1(2H)-one] | 0.004 µM | > 10 µM
O=C(N1Cc2ccc(-c3ncc(F)c(Nc4ccc5c(=O)[nH]ccc5c4)n3)cc2C1)N1CC(F)(F)C1 [C79, 6-((2-(2-(3,3-difluoro-azetidine-1-carbonyl)isoindolin-5-yl)-5-fluoro-pyrimidin-4-yl)amino) isoquinolin-1(2H)-one] | 0.046 µM | > 10 µM
CC(CC(=O)N1CCc2sc(-c3ncc(F)c(Nc4ccc5c(=O)[nH]ccc5c4)n3)cc2C1)C(F)(F)F (stereo not shown) [C47, 6-((5-fluoro-2-(5-(4,4,4-trifluoro-3-methylbutanoyl)-4,5,6,7-tetrahydrothieno[3,2-c]pyridin-2-yl)pyrimidin-4-yl)amino)isoquinolin-1(2H)-one] | 0.015 µM | > 10 µM
O=C(c1ccc2c(c1)CN(c1nccc(Nc3ccc4c(=O)[nH]ccc4c3)n1)C2)N1CC(F)(F)C1 [C1, 6-((2-(5-(3,3-difluoroazetidine-1-carbonyl)isoindolin-2-yl)pyrimidin-4-yl)amino)isoquinolin-1(2H)-one] | 0.129 µM | > 10 µM
CC(CC(=O)N1CCc2cc(-c3ncc(F)c(Nc4ccc5c(=O)[nH]ccc5c4)n3)ccc21)C(F)(F)F (stereo not shown) [C71, 6-((5-fluoro-2-(1-(4,4,4-trifluoro-3-methyl-butanoyl)indolin-5-yl)pyrimidin-4-yl)amino) isoquinolin-1(2H)-one] | 0.025 µM | > 10 µM
O=C(OC1CC(F)(F)C1)N1CCc2cc(-c3nccc(Nc4ccc5c(=O)[nH]ccc5c4)n3)ccc2C1 [C25, 3,3-difluoro-cyclobutyl 6-(4-((1-oxo-1,2-dihydro-isoquinolin-6-yl)amino)pyrimidin-2-yl)-3,4-dihydro-isoquinolin-2(1H)-carboxylate] | 0.045 µM | > 10 µM
